The values below are quoted from earlier work in patent US20210267985A1, “COMPOSITIONS AND METHODS FOR INDUCING ENHANCED BRAIN FUNCTION” (priority 2020, published 2021).

The structures appear in SMILES notation.

The conditions of this data set: in vivo.

On to `Cn1c(=O)c2c(ncn2C)n(C)c1=O` [caffeine], for which the half-life (commonly how long it takes for the measured level to halve) was 4 to 6 h.
